Where a name gives a salt, the structure may show the parent alone.

The source of these data is US10689357B2, “N-acylethanolamine hydrolyzing acid amidase (NAAA) inhibitors and use thereof” (Northeastern University, priority 2018, dated 2020).

This experiment deals with hNAAA (Homo sapiens (Human), UniProt Q02083). Nature of the experiment: NAAA fluorescence-based inhibition assay with PAMCA substrate. It is filed as biochemical. Conditions: purified activated hNAAA, PAMCA 5 μM, pH 4.5, 37° C. An excerpt:
In order to have an assay method more conducive to high-throughput screening than those published for measuring the NAE hydrolyzing activity of NAAA [Proc. Natl. Acad. Sci. USA. 2009; 106(49):20966-71], the fluorogenic PEA analog N-(4-methyl coumarin)palmitamide (PAMCA), which is hydrolyzed to fluorescent 7-amino-4-methyl coumarin (AMC) and palmitic acid, was developed. [J. Proteome Res. 2012; 11(2):972-981], [PloS One. 2012; 7: e43877]. For three point concentration inhibition assays with hNAAA the following procedure was used. Purified activated NAAA (final concentration of 0.25 μg/mL) was incubated in assay buffer (100 mM citrate-phosphate buffer, pH 4.5, 3 mM DTT, 0.1% Triton X-100, 0.05% BSA, and 150 mM NaCl) made up to a total volume of 180 μL, followed by addition of the compound dissolved in 10 μL DMSO (along with DMSO neat for the control sample) with the final concentrations for each compound of 100, 10, and 1 μM, in triplicate on a 96 well plate. These samples were allowed to incubate for 15 min at room temperature and then 10 μL of a PAMCA stock solution in DMSO (final PAMCA concentration [5 μM]) was added. After 5 minutes of agitation on a shaking plate, the reaction was allowed to proceed at 37° C. for 120 minutes, with fluorescence readings taken every 10 minutes at a wavelength of 460 nm (using an excitation wavelength of 360 nm) on a Synergy HT Plate Reader using Gen5 software from Bio-Tek. The enzyme activity was calculated by converting the relative fluorescence units to AMC formed, using a standard curve of AMC.
For compounds that inhibit hNAAA in range IC50<1 μM, full inhibition curves using eight different concentrations of inhibitor (8 point assay) were generated. The assay procedure used was the same as the three point assay. For ostensibly covalent compounds (as observed by a significant decrease in the slope of a plot of fluorescence vs. time in three point screen), samples were allowed to incubate for 2 hours at 37° C., instead of 15 minutes, before addition of 10 μL of a PAMCA stock solution in DMSO for a final PAMCA concentration of 5 μM. After 5 minutes of agitation on a shaking plate, the reaction was allowed to proceed at 37° C. for 120 minutes. Inhibition constants were calculated using pro Fit software (Quantum Soft, Uetikon am See, Switzerland) and a Levenberg-Marquardt algorithm.

Chain of hNAAA (Q02083 29-125): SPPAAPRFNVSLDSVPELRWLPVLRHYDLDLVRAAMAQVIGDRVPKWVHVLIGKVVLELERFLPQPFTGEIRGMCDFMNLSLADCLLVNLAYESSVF
Chain of hNAAA (Q02083 126-359): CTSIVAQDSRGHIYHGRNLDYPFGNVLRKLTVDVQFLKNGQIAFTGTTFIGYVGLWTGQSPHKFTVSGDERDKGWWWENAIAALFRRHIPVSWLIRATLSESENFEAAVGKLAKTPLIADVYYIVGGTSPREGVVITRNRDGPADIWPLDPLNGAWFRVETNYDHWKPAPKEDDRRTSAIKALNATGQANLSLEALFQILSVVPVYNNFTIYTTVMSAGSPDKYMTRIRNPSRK

For `COc1ccc(N2CC(C(=O)N[C@H]3C[C@@H](N=C=S)C3)C2)cc1` [Example 36, N-((1s,3s)-3-Isothiocyanatocyclobutyl)-1-(4-methoxyphenyl)azetidine-3-carboxamide], the IC50 (in general, the concentration that inhibits the measured activity by half) is 0.11 to 1 µM. To `COc1ccc(C23CC(C(=O)N[C@H]4C[C@@H](N=C=S)C4)(C2)C3)cc1` [Example 37, N-((1s,3s)-3-isothiocyanatocyclobutyl)-3-(4-methoxyphenyl)bicyclo[1.1.1]pentane-1-carboxamide] belongs 0.11 to 1 µM; to `COc1ccc(-c2cnc(C(=O)N[C@H]3C[C@@H](N=C=S)C3)c(N3CCC3)c2)cc1` [Example 38, 3-(Azetidin-1-yl)-N-((1s,3s)-3-isothiocyanatocyclobutyl)-5-(4-methoxyphenyl)picolinamide], 0.11 to 1 µM.

For the molecule `COc1ccc(-c2ccc(C(C)O[C@H]3C[C@@H](N=C=S)C3)nc2)cc1` (stereo partly drawn) [Example 39, 2-(1-((1s,3s)-3-Isothiocyanatocyclobutoxy)ethyl)-5-(4-methoxyphenyl)pyridine], the IC50 was in the range of 0.01 to 0.1 µM.

For `COc1ccc(-c2ccc(C(C)O[C@H]3C[C@@H](N=C=S)C3)nc2)cc1F` (stereo partly drawn) [Example 40, 5-(3-Fluoro-4-methoxyphenyl)-2-(1-((1s,3s)-3-isothiocyanatocyclobutoxy)ethyl)pyridine], the 50% inhibitory concentration (IC50) lay in the range of 0.11 to 1 µM. In the case of `COc1ccc([C@H]2C[C@@H](C(=O)N[C@H]3C[C@@H](N=C=S)C3)C2)cc1` [Example 41, (1s,3S)—N-((1s,3S)-3-Isothiocyanatocyclobutyl)-3-(4-methoxyphenyl) cyclobutane-1-carboxamide], the IC50 was in the range of 0.01 to 0.1 µM.

With `COc1ccc(-c2ccc(CO[C@H]3C[C@@H](N=C=S)C3)nc2)nc1` [Example 42, 6′-(((1s,3s)-3-Isothiocyanatocyclobutoxy)methyl)-5-methoxy-2,3′-bipyridine succinate], the IC50 was in the range of 0.01 to 0.1 µM. To `COc1ccc(-c2ccc(CO[C@H]3C[C@@H](N=C=S)C3)nc2)cc1F` [Example 43, 5-(3-Fluoro-4-methoxyphenyl)-2-(((1s,3s)-3-isothiocyanatocyclobutoxy)methyl)pyridine citrate] belongs 0.01 to 0.1 µM. Regarding “(1r, 3r)-3-Isothiocyanatocyclobutyl 5-(4-methoxyphenyl)picolinate [Example 21]”, the 50% inhibitory concentration (IC50) lay within 0.01 to 0.1 µM.
